We go through 4 compounds from patent US20120189546A1, “Radiolabelling Method Using Cycloalkyl Groups” (BAYER PHARMA AKTIENGESELLSCHAFT, priority 2009, published 2012).

Values joined by “and” are separate entries in the source; they are usually repeats but may differ in a detail not shown here. Equal entries are not always repeated.

One data set concerns A549 cells. In words: Cell uptake of [18F] compound 32b into A549 cells. Type of data set: cell-based, human. How it is done: We studied the uptake of the radiolabeled [^18F] compound 32b into A549 cells, 90000 A549 cells were seeded per cavity of a 48 well incubation plate (Becton Dickinson; Cat. 353078) and incubated for 2 days in RPMI 1640 with GlutaMAX (Invitrogen; Cat. 31331) medium supplemented with 10% FCS in an incubator (37° C., 5% CO2). Cells were washed once with PBS and then incubated for 10-30 minutes at 37° C. in PBS with 0.25 MBq of compound 32b ([^18F] labeled). After incubation, the cells were washed once with cold PBS, lysed with 1M NaOH, and finally lysates were measured in a gamma counter.

A short description of data set [1]: In vitro plasma stability, human plasma. The following applies: for MEAN [%] / % v. 0 h: human female plasma, 0.3 μM; for % v. 0 h: single values. Format: in vitro ADME. How it is done: (§1) This investigation determines the stability of test compound in plasma of different species. […] Samples were freezed at −20° C. overnight, subsequently centrifuged for 15 minutes at 3000 rpm and the supernatant was analyzed with an Agilent 1200 HPLC-system with LCMS/MS detection.
(§2) The stability of the test compound was quantified by comparison of the remaining amount at the different time points with the amount of the 0 min sample and is expressed in % of initial concentration.

Data set [2] can be described thus: In vitro plasma stability, rat plasma. Format: in vitro ADME. The following applies: 0.3 μM. How it is done:
as §1, §2

The target of another data set is T1, LAT1 (Homo sapiens, UniProt Q01650).
T1 construct: endogenous in cells; host or cells: A549 human lung carcinoma cells
T1 sequence (Q01650 whole entry): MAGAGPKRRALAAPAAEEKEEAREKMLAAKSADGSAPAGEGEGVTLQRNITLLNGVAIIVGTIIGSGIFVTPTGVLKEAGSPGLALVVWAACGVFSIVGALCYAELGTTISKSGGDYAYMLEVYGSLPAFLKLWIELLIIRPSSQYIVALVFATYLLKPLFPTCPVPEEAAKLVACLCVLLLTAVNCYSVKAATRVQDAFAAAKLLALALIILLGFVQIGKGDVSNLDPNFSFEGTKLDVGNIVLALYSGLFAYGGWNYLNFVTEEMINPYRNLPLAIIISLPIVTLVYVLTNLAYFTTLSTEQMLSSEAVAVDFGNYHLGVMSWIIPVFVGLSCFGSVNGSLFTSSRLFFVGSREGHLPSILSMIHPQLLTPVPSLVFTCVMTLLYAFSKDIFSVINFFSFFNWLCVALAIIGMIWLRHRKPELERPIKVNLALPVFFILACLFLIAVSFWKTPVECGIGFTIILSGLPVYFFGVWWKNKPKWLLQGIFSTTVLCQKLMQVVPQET
T1 sequence (P08195 102-630 partner): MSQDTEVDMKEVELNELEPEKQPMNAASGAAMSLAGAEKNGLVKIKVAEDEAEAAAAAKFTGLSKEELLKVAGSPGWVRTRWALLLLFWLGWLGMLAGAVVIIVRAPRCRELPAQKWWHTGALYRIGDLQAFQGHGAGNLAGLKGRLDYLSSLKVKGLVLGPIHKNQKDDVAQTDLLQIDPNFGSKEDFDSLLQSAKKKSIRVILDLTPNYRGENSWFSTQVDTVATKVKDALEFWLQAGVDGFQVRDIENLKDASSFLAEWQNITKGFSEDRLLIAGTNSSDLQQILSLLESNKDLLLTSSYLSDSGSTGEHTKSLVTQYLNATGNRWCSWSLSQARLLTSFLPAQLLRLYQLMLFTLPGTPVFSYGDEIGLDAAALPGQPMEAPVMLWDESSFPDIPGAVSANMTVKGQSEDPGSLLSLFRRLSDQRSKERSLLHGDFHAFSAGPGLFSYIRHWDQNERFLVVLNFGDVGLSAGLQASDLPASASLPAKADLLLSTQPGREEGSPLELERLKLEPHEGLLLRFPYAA
The data set can be described thus: [H-3]-D-Tyrosine efflux experiment in A549 cells (LAT1 substrate test). Format: cell-based. The following applies: A549 cells preloaded with [H-3]-D-Tyrosine, 100 μM cold compound, 0.7% without compound. How it is done:
To study if the compounds are transported by LAT1, the cells were incubated with 37 kBq of the radiotracer [H-3]-D-Tyrosine and was incubated with cells at 37° C. in a humidified atmosphere containing 5% CO2 for 30 min. Then the cells were washed with PBS and fresh assay buffer was added to the cells containing 100 μM concentration of cold compound and the cells were incubated for another 30 min. To stop tracer efflux the incubation buffer was removed after 30 min, the cells were washed and lysed with 1 M sodium hydroxide. Subsequently the amount of radioactivity in the cell lysate was determined in a scintillation counter.
(§3) Aliquots of the applied tracer amount were measured in a gamma counter to determine the total amount in counts per minute (cpm) together with the samples to correct for tracer decay. Cell numbers per well were determined after detaching cells by trypsinization in 3 wells prior to start of the assay and counted in cell chamber under a microscope. The mean of cells was calculated. To compare tracer uptake between different studies the cell number was normalized to 100,000 cells.

In data set [3] the test system is A549 human lung carcinoma cell line. In words: [H-3]-D-Tyrosine uptake competition in A549 cells. Format: cell-based. As to conditions: 30 min, 100 μM competitor, 2.8% without competitor. As to the method:
Cells were seeded 1-2 days prior to the assay and grown until sub-confluency in 48 well plates. Prior to the assay the cell culture medium was removed and the cells were washed with phosphate buffered saline (PBS)+0.1% Bovine serum albumin (BSA). After adding the assay buffer (PBS+0.1% BSA), 37 KBq of the radiotracer [H-3]-D-Tyrosine was added immediately and was incubated with cells at 37° C. in a humidified atmosphere containing 5% CO2 for 30 min. For investigation of transporter characteristics and competitions, the cells were coincubated with 100 μM F-DOPA or compound 29 (FCBT) for 30 min to monitor radioactivity uptake. To stop tracer uptake the incubation buffer was removed after 30 min, the cells were washed and lysed with 1 M sodium hydroxide. Subsequently the amount of radioactivity in the cell lysate was determined in a scintillation counter.
as §3

For the next data set, the system named is rat hepatocytes. In words: In vitro metabolic stability in rat hepatocytes with calculation of hepatic in vivo blood clearance. As to conditions: male Wistar rat hepatocytes, 0.5x10^6 cells/ml, 1 μM test compound. Type of data set: in vitro ADME. As to the method:
Hepatocytes from Han Wistar rats were isolated via a 2-step perfusion method. After perfusion, the liver was carefully removed from the rat: the liver capsule was opened and the hepatocytes were gently shaked out into a Petri dish with ice-cold WME. The resulting cell suspension was filtered through sterile gaze in 50 mL falcon tubes and centrifuged at 50×g for 3 min at room temperature. The cell pellet was resuspended in 30 mL WME and centrifuged through a Percoll® gradient for 2 times at 100×g. The hepatocytes were washed again with Williams' medium E (WME) and resuspended in medium containing 5% FCS. Cell viability was determined by trypan blue exclusion.
For the metabolic stability assay liver cells were distributed in WME containing 5% FCS to glas vials at a density of 0.5×10^6 vital cells/ml. The test compound was added to a final concentration of 1 μM. During incubation, the hepatocyte suspensions were continuously shaken and aliquots were taken at 2, 8, 16, 30, 45 and 60 min, to which equal volumes of cold methanol were immediately added. Samples were freezed at −20° C. overnight, subsequently centrifuged for 15 minutes at 3000 rpm and the supernatant was analyzed with an Agilent 1200 HPLC-system with LCMS/MS detection.
The half-life of a test compound was determined from the concentration-time plot. From the half-life the intrinsic clearances were calculated.

Take `N[C@@H](Cc1ccc(O[C@H]2C[C@@H]([18F])C2)cc1)C(=O)O` [Compound 32b, O-(cis-3-[^18F]Fluorocyclobutyl)-L-tyrosine]: in the data set on A549 cells (A549 cells, after 30 min, 0.25 MBq in PBS, 37° C.), the maximum uptake was determined as 5.87 % applied dose/10^6 cells. Further, the “accumulation in tumor cells” value in the data set on A549 cells (all tested tumor cells) was “good accumulation”.
Turning to `N[C@@H](Cc1ccc(OCCF)cc1)C(=O)O` [O-(2-[^19F]Fluoroethyl)-L-tyrosine, reference compound], the “MEAN [%]” value is given as 100% in data set [1] (1 min incubation); 103% in data set [1] (30 min incubation); 50% in data set [1] (60 min incubation); 100% in data set [2] (rat male plasma, 1 min incubation); 109% in data set [2] (rat male plasma, 30 min incubation); 119% in data set [2] (rat male plasma, 60 min incubation). Also, the “% v. 0 h” value in data set [1] (1 min incubation, listed as FET) was 101% and 99%; in data set [1] (30 min incubation, listed as FET) it was 101% and 105%; in data set [1] (60 min incubation, listed as FET), 52% and 49%; in data set [2] (rat male plasma, 1 min incubation, single values, listed as FET), 92% and 108%; in data set [2] (rat male plasma, 30 min incubation, single values, listed as FET), 110% and 109%; in data set [2] (rat male plasma, 60 min incubation, single values, listed as FET), 120% and 118%. The “degradation in human plasma after 60 min” value in data set [1] was 50%.
For `N[C@@H](Cc1cc(O)c(O)cc1[18F])C(=O)O` [F-DOPA, reference compound], on LAT1, the “amount of D-Tyrosine which remained in the cell after 30 min (efflux)” value is on record as 0.11 % applied dose/100.000 cells. Moreover, in data set [3], the “uptake of the applied [H-3]-D-Tyrosine with compound present in the assay buffer” value was found to be 1.8%.
Take `N[C@@H](Cc1ccc(O[C@H]2C[C@@H](F)C2)cc1)C(=O)O.O=C(O)C(F)(F)F` [Compound 29, O-(cis-3-Fluorocyclobutyl)-L-tyrosine trifluoroacetate salt]: the “MEAN [%]” value in data set [1] (2 min incubation) is on record as 100%; in data set [1] (30 min incubation) it was 111%; in data set [1] (60 min incubation) it was 104%; in data set [2] (male, rat, 2 min), 100%; in data set [2] (male, rat, 30 min), 124%; in data set [2] (male, rat, 60 min), 133%. Besides, the “% v. 0 h” value in data set [1] (2 min incubation, trifluoroacetate salt) was 96% and 104%; in data set [1] (30 min incubation, trifluoroacetate salt) it was 121% and 100%; in data set [1] (60 min incubation, trifluoroacetate salt), 104% and 105%; in data set [2] (male, rat, 30 min) it was 124%. The “degradation in human plasma after 60 min” value in data set [1] is recorded as “did not show any degradation”. In addition, in the data set with rat hepatocytes, the “CL blood, ws, hep” value is 7.17 mL/min/kg. Moreover, on LAT1, the “amount of D-Tyrosine which remained in the cell after 30 min (efflux)” value is 0.08 % applied dose/100.000 cells. Besides, the “uptake of the applied [H-3]-D-Tyrosine with compound present in the assay buffer” value in data set [3] came to 1.1%.
